# Assay results from US12102085B2, “Insecticidal active mixtures comprising carboxamide compound” (priority 2013, dated 2024).
# How the values were obtained:
# Assay type in all cases: in vivo
# [1] = system: yellow fever mosquito (Aedes aegypti); assay: Test B.3 Control of yellow fever mosquito, larvae in 96-well microtiter plates; conditions: 2 days, larval mortality
# Procedure: Test Principle: Curative Ultrasonic Spraying of Larvae in Liquid Diet
# For evaluating control of yellow fever mosquito (Aedes aegypti) the test unit consisted of 96-well-microtiter plates containing 200 μl of tap water per well and 5-15 freshly hatched A. aegypti larvae.
# The compounds or mixtures were formulated using a solution containing 75% (v/v) water and 25% (v/v) DMSO. Different concentrations of formulated compounds or mixtures were sprayed onto the insect diet at 2.5 μl, using a custom built micro atomizer, at two replications.
# (§1) For the experimental mixtures in this test identical volumes of both mixing partners at the desired concentrations respectively, were mixed together.
# After application, microtiter plates were incubated at 28±1° C., 80±5% RH for 2 days.
# Larval mortality was then visually assessed.
# [2] = system: vetch aphid (Megoura viciae); assay: Test B.1 Control of vetch aphid, sprayed broad bean leaf disks in 24-well microtiter plates; conditions: 5 days, aphid mortality and fecundity
# Procedure: For evaluating control of vetch aphid (Megoura viciae) through contact or systemic means the test unit consisted of 24-well-microtiter plates containing broad bean leaf disks.
# The compounds or mixtures were formulated using a solution containing 75% (v/v) water and 25% (v/v) DMSO. Different concentrations of formulated compounds or mixtures were sprayed onto the leaf disks at 2.5 μl, using a custom built micro atomizer, at two replications.
# as §1
# After application, the leaf disks were air-dried and 5-8 adult aphids placed on the leaf disks inside the microtiter plate wells. The aphids were then allowed to suck on the treated leaf disks and incubated at 23±1° C., 50±5% RH for 5 days.
# Aphid mortality and fecundity was then visually assessed.
# [3] = system: Southern Green Stink Bug (Nezara viridula); assay: Test B.6 Control of Southern Green Stink Bug, dipped green beans and dipped insects; conditions: for Average Control % [observed mortality]: Nezara viridula 4th instar, 5 ppm, after 5 days
# Procedure: The compounds and respective mixtures were formulated using a solution containing 50:50 water:acetone with 0.01 wt % Kinetic®. Whole Green Beans were rinsed in a 1% bleach solution, triple rinsed with DI water, and allowed to air dry at least 30 minutes in the fume hood. They were dipped in treatment solutions for approximately 5 seconds and allowed to air dry for another 30 minutes in the fume hood. For maximum exposure, Southern Green Stink Bugs (SGSB, 4th instar) were dipped in treatment solution for approximately 3 seconds and allowed to air dry in a cup lined with filter paper and closed with a vented lid for approximately 10 minutes in the fume hood. Three beans were placed in cups with a dry filter paper in the bottom and a portion cup with a cotton wick for water (=assay arena), and were infested with 4 SGSB per cup. Each treatment was replicated 3-fold (1 replicate=3 beans with 4 SGSB). The assays arenas were held at 27° C. and 45% room humidity. Data were recorded after 5 days as number of insects alive and dead. Nezara viridula mortality (%) was calculated as: [(pre-treatment count−post treatment count)/pre-treatment count]×100.
# [4] = system: tobacco budworm (Heliothis virescens); assay: Test B.4 Control of tobacco budworm, insect diet with eggs in 96-well microtiter plates; conditions: 5 days, egg and larval mortality
# Procedure: For evaluating control of tobacco budworm (Heliothis virescens) the test unit consisted of 96-well-microtiter plates containing an insect diet and 15-25 H. virescens eggs.
# The compounds or mixtures were formulated using a solution containing 75% (v/v) water and 25% (v/v) DMSO. Different concentrations of formulated compounds or mixtures were sprayed onto the insect diet at 10 μl, using a custom built micro atomizer, at two replications.
# as §1
# (§2) After application, microtiter plates were incubated at 28±1° C., 80±5% RH for 5 days.
# (§3) Egg and larval mortality was then visually assessed.
# [5] = system: boll weevil (Anthonomus grandis); assay: Test B.2 Control of boll weevil, insect diet with eggs in 24-well microtiter plates; conditions: 5 days, egg and larval mortality
# Procedure: For evaluating control of boll weevil (Anthonomus grandis) the test unit consisted of 24-well-microtiter plates containing an insect diet and 20-30 A. grandis eggs.
# The compounds or mixtures were formulated using a solution containing 75% (v/v) water and 25% (v/v) DMSO. Different concentrations of formulated compounds or mixtures were sprayed onto the insect diet at 20 μl, using a custom built micro atomizer, at two replications.
# as §1
# After application, microtiter plates were incubated at 23±1° C., 50±5% RH for 5 days.
# as §3
# [6] = system: Mediterranean fruitfly (Ceratitis capitata); assay: Test B.5 Control of Mediterranean fruitfly, insect diet with eggs in 96-well microtiter plates; conditions: 5 days, egg and larval mortality
# Procedure: For evaluating control of Mediterranean fruitfly (Ceratitis capitata) the test unit consisted of 96-well-microtiter plates containing an insect diet and 50-80 C. capitata eggs.
# The compounds and respective mixtures were formulated using a solution containing 75% (v/v) water and 25% (v/v) DMSO. Different concentrations of formulated compounds and mixtures were sprayed onto the insect diet at 5 μl, using a custom built micro atomizer, at two replications. For the experimental mixtures in this test identical volumes of both mixing partners at the desired concentrations respectively, were mixed together.
# as §2, §3
# [7] = Nezara viridula, 120 h, read-out: Average Control % [observed mortality]
smiles,measurement,setting,value
"Cc1c(COC(=O)[C@@H]2[C@H](/C=C(\Cl)C(F)(F)F)C2(C)C)cccc1-c1ccccc1 (racemic) [Bifenthrin, bifenthrin]",Average Control %,[1]; 40 + 0 ppm,0%
"CC(C)(C)[C@]1(O)C[C@@H]2OC(=O)C[C@@]23C(=O)O[C@@H]2OC(=O)[C@H](O)[C@]213 [Bilobalid, (3aS,5aR,8aS,9R,10aR)-9-tert-butyl-8,9-dihydroxydihydro-9H-furo[2,3-b]furo[3′,2′;2,3]cyclopenta[1,2-c]furan-2,4,7(3H,8H)-trione]",Average Control %,[2]; 25 ppm,0%
same,Average Control % [observed mortality],[3],19%
"C[C@@H]1C(=O)O[C@H]2C[C@@]34[C@H]5C[C@@H](C(C)(C)C)[C@]36[C@@H](OC(=O)[C@@H]6O)O[C@@]4(C(=O)O5)[C@]21O [Ginkolide A, ginkgolide A]",Average Control % [observed mortality],[3],13%
"O=[N+]([O-])NC1=NCCN1Cc1ccc(Cl)nc1 [Imidacloprid, imidacloprid]",Average Control %,[4]; 0.4 ppm,0%
same,Average Control %,[5]; 10 ppm,0%
same,Average Control %,[6]; 10 ppm,25%
"O=C(NC(=O)c1c(F)cccc1F)Nc1cc(Cl)c(F)c(Cl)c1F [Teflubenzuron, teflubenzuron]",Average Control %,[4]; 50 ppm,0%
same,Average Control %,[2]; 2 ppm,0%
CN(C(=O)c1ccccc1)c1cccc(C(=O)Nc2c(Br)cc(C(F)(C(F)(F)F)C(F)(F)F)cc2C(F)(F)F)c1F [carboxamide compound of formula I],Average Control %,[4]; 0.1 ppm,0%
same,Average Control %,[4]; 0.5 ppm,50%
same,Average Control %,[1]; 0 + 0.5 ppm,0%
same,Average Control %,[2]; 0.02 ppm,0%
same,Average Control %,[2]; 0.5 ppm,0%
same,Average Control %,[5]; 0.5 ppm,0%
same,Average Control %,[6]; 0 ppm (so in the source),0%
same,mortality at 1 ppm,[3]; [7],13%
same,mortality at 10 ppm,[3]; [7],88%
